Reference: ChEMBL document CHEMBL3739348, “Novel pyrrole derivatives as selective CHK1 inhibitors: design, regioselective synthesis and molecular modeling” (Medchemcomm, 2015)

How the values were obtained:
[1] = target: Insulin receptor (Homo sapiens) (UniProt P06213); test: Inhibition of InsR (unknown origin) at 30 uM by microfluidic assay relative to control
[2] = target: Proto-oncogene tyrosine-protein kinase Src (Homo sapiens) (UniProt P12931); test: Inhibition of SRC (unknown origin) at 30 uM by microfluidic assay relative to control
[3] = target: Mitogen-activated protein kinase 1 (Homo sapiens) (UniProt P28482); test: Inhibition of Erk2 (unknown origin) at 30 uM by microfluidic assay relative to control
[4] = target: Tyrosine-protein kinase Lyn (Homo sapiens) (UniProt P07948); test: Inhibition of LYN (unknown origin) at 30 uM by microfluidic assay relative to control
[5] = target: Glycogen synthase kinase-3 (Homo sapiens) (UniProt P49840+P49841); test: Inhibition of GSK3 (unknown origin) at 30 uM by microfluidic assay relative to control; type: protein assay
[6] = target: Hepatocyte growth factor receptor (Homo sapiens) (UniProt P08581); test: Inhibition of MET (unknown origin) at 30 uM by microfluidic assay relative to control
[7] = target: Mitogen-activated protein kinase 14 (Homo sapiens) (UniProt Q16539); test: Inhibition of p38a (unknown origin) at 30 uM by microfluidic assay relative to control
[8] = target: T1, Serine/threonine-protein kinase Chk1 (Homo sapiens, UniProt O14757); test: Inhibition of CHK1 (unknown origin) by microfluidic assay relative to control
T1 sequence (O14757 whole entry): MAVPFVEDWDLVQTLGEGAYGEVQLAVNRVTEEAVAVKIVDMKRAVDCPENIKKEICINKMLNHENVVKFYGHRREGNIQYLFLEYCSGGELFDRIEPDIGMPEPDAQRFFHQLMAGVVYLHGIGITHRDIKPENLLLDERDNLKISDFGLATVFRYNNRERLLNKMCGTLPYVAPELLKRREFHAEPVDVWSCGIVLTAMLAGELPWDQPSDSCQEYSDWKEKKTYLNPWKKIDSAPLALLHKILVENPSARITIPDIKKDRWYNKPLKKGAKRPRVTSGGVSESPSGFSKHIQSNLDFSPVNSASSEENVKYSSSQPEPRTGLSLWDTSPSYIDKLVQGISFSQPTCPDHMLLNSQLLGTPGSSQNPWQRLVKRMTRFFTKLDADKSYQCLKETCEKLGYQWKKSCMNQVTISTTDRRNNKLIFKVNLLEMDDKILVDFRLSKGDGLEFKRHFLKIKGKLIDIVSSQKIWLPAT

[9] = target: Epidermal growth factor receptor (Homo sapiens, UniProt P00533); test: Inhibition of EGFR (unknown origin) by microfluidic assay relative to control
[10] = target: T2, Serine/threonine-protein kinase Chk1 (Homo sapiens) (UniProt O14757); test: Inhibition of CHK1 (unknown origin) at 30 uM by microfluidic assay relative to control
T2 sequence (whole entry): T1 sequence (O14757 whole entry)

[11] = target: Tyrosine-protein kinase Lck (Homo sapiens) (UniProt P06239); test: Inhibition of LCK (unknown origin) at 30 uM by microfluidic assay relative to control
[12] = target: Tyrosine-protein kinase Fyn (Homo sapiens) (UniProt P06241); test: Inhibition of FYN (unknown origin) at 30 uM by microfluidic assay relative to control
[13] = target: Tyrosine-protein kinase ABL1 (Homo sapiens) (UniProt P00519); test: Inhibition of ABL (unknown origin) at 30 uM by microfluidic assay relative to control
[14] = target: Mitogen-activated protein kinase 3 (Homo sapiens) (UniProt P27361); test: Inhibition of Erk1 (unknown origin) at 30 uM by microfluidic assay relative to control
[15] = target: Protein kinase C (PKC) (Homo sapiens) (UniProt O94806+P41743+P17252+P05129+Q05655+P05771+Q05513+Q02156+P24723+Q15139+Q04759); test: Inhibition of PKC (unknown origin) at 30 uM by microfluidic assay relative to control

Sequence of Tyrosine-protein kinase Lyn (Homo sapiens) (P07948 2-512 limits assumed): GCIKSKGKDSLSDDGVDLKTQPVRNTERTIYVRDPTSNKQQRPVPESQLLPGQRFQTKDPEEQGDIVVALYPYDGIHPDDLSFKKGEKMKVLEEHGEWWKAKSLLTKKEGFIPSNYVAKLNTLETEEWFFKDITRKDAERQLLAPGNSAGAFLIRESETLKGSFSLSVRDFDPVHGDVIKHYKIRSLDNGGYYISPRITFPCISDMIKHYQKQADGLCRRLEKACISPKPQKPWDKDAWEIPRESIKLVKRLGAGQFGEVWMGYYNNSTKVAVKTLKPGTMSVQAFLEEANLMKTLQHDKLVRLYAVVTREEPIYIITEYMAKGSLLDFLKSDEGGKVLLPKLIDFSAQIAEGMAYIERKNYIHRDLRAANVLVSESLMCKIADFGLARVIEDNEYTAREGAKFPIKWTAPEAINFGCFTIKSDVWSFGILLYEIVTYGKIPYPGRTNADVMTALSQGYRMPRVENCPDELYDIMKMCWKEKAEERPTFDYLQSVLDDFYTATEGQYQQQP
Sequence of Glycogen synthase kinase-3 (Homo sapiens) (P49840 whole entry, looked up): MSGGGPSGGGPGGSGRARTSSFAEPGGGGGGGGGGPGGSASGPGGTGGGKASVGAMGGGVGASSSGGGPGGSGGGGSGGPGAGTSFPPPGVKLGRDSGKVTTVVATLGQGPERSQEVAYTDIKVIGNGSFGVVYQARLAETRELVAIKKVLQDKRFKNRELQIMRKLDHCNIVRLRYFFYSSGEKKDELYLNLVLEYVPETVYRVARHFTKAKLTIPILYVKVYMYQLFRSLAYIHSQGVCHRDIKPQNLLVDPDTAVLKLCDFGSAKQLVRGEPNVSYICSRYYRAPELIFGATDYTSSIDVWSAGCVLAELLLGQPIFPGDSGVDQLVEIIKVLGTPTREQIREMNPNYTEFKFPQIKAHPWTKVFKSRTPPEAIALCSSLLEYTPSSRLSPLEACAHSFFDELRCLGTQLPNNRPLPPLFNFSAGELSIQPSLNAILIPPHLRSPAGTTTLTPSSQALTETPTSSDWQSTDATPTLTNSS
Sequence of Glycogen synthase kinase-3 (Homo sapiens) (P49841 whole entry, looked up): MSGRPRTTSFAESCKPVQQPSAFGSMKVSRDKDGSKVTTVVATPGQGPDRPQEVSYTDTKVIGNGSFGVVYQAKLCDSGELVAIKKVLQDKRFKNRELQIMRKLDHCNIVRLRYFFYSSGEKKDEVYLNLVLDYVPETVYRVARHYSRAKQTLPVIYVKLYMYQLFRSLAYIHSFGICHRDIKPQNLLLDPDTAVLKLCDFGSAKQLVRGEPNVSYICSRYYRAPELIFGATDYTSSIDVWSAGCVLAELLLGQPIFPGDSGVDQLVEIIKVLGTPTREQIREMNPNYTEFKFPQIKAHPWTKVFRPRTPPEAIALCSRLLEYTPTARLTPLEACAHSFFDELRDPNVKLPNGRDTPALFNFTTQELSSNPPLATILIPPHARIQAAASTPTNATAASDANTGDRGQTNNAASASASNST
Sequence of Tyrosine-protein kinase Lck (Homo sapiens) (P06239 2-509 limits assumed): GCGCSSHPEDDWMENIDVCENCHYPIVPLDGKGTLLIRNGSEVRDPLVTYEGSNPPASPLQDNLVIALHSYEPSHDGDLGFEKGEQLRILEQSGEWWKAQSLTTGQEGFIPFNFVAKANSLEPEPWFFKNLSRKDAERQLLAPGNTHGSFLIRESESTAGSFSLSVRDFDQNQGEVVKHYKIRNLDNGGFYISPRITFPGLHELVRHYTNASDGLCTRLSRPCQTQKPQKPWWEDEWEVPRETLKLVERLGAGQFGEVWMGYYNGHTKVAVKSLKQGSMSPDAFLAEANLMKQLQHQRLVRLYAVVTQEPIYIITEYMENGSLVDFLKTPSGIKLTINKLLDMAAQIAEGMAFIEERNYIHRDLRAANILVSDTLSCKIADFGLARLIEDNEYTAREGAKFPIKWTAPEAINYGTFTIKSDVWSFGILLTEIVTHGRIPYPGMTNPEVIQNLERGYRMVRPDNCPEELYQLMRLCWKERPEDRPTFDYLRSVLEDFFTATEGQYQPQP
Sequence of Tyrosine-protein kinase Fyn (Homo sapiens) (P06241 2-537 limits assumed): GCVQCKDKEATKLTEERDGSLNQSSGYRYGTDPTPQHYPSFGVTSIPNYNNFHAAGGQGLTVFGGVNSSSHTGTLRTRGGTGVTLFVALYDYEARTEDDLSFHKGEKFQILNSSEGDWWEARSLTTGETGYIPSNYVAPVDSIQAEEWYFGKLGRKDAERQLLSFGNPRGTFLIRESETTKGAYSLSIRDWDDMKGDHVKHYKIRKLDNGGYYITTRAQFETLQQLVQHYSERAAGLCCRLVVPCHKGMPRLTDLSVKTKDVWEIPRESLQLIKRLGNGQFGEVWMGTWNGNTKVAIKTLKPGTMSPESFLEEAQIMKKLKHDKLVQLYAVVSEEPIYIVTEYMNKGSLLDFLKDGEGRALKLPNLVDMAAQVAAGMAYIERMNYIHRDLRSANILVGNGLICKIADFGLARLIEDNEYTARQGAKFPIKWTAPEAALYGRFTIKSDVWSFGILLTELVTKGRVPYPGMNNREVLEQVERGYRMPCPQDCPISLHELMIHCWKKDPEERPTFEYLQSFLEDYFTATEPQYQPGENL
Sequence of Mitogen-activated protein kinase 14 (Homo sapiens) (Q16539 whole entry): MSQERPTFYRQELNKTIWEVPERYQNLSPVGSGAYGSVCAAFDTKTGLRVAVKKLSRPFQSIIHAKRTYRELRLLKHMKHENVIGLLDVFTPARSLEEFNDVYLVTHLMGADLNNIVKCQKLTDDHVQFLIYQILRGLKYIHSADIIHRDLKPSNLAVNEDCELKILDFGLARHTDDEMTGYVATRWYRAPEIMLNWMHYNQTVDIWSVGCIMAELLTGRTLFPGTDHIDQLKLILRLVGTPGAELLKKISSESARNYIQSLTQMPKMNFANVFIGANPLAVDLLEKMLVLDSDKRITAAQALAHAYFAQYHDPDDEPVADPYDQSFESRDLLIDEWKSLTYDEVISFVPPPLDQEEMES
Sequence of Mitogen-activated protein kinase 1 (Homo sapiens) (P28482 whole entry): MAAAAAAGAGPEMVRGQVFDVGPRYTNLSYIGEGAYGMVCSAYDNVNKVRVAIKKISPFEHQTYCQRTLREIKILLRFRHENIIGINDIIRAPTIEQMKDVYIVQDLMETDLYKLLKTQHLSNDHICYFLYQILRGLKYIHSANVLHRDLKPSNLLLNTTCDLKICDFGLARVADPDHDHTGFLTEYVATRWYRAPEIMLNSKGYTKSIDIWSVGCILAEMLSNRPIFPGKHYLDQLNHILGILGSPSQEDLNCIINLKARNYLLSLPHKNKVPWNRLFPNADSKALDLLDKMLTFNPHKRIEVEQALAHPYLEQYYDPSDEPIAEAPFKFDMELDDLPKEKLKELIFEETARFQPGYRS
Sequence of Proto-oncogene tyrosine-protein kinase Src (Homo sapiens) (P12931 2-536 limits assumed): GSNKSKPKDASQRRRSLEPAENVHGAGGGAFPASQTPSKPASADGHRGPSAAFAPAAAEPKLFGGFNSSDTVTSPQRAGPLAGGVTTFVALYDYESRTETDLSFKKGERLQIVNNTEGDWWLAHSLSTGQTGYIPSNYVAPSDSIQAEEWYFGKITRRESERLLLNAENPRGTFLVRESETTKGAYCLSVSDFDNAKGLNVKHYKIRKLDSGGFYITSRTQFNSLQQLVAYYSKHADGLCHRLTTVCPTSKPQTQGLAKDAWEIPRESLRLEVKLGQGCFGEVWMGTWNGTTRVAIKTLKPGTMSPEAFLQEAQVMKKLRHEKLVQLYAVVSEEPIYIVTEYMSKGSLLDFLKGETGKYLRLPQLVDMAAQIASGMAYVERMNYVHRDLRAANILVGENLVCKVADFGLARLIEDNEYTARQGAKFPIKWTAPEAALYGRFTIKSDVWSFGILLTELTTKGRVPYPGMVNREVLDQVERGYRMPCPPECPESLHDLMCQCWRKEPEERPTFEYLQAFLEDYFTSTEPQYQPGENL
Sequence of Mitogen-activated protein kinase 3 (Homo sapiens) (P27361 whole entry): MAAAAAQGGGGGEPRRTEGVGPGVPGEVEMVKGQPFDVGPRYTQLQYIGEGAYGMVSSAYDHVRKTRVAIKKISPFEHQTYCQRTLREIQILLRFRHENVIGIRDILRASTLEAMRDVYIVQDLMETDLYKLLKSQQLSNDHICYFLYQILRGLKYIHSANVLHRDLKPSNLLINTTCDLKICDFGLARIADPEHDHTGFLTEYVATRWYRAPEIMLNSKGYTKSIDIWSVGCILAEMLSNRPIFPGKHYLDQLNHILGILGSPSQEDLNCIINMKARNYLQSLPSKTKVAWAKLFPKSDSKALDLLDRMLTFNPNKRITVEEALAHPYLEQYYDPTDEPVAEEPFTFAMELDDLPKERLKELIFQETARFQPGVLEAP

CC(=O)c1nn(-c2ccccc2)cc1C(=O)c1c(C)[nH]c(-c2ccccc2)c1-c1ccccc1
inhibition [1]: 2%
inhibition [2]: 21%
inhibition [3]: 21%
inhibition [4]: 3%
inhibition [5]: 12%
inhibition [6]: 32%
inhibition [7]: 3%
IC50 [8]: 120 nM
IC50 [9]: 4670 nM
inhibition [10]: 100%
inhibition [11]: 22%
inhibition [12]: 2%
inhibition [13]: 2%
inhibition [14]: 3%
inhibition [15]: 33%

Cc1[nH]c(-c2ccccc2)c(-c2ccccc2)c1C(=O)c1cn(-c2ccccc2)nc1-c1ccccc1
inhibition [1]: 4%
inhibition [2]: 12%
inhibition [3]: 35%
inhibition [4]: 24%
inhibition [5]: 3%
inhibition [6]: 45%
inhibition [7]: 12%
IC50 [8]: 910 nM
IC50 [9]: 2560 nM
inhibition [10]: 78%
inhibition [11]: 44%
inhibition [12]: 21%
inhibition [13]: 3%
inhibition [14]: 7%
inhibition [15]: 67%

Cc1[nH]c(-c2ccccc2)c(-c2ccccc2)c1C(=O)c1coc2ccc(O)cc12
inhibition [1]: 2%
inhibition [2]: 32%
inhibition [3]: 3%
inhibition [4]: 21%
inhibition [5]: 3%
inhibition [6]: 32%
inhibition [7]: 24%
IC50 [8]: 450 nM
IC50 [9]: 3670 nM
inhibition [10]: 90%
inhibition [11]: 32%
inhibition [12]: 23%
inhibition [13]: 3%
inhibition [14]: 4%
inhibition [15]: 32%

Cc1[nH]c(-c2ccccc2)c(-c2ccccc2)c1-c1ccc(NC(=O)c2ccccc2)c(=O)o1
inhibition [1]: 3%
inhibition [2]: 12%
inhibition [3]: 4%
inhibition [4]: 33%
inhibition [5]: 2%
inhibition [6]: 22%
inhibition [7]: 32%
IC50 [8]: 780 nM
IC50 [9]: 2890 nM
inhibition [10]: 80%
inhibition [11]: 34%
inhibition [12]: 21%
inhibition [13]: 2%
inhibition [14]: 5%
inhibition [15]: 65%

Cc1[nH]c(-c2ccccc2)c(-c2ccccc2)c1-c1nnc(C)c2nn(-c3ccccc3)cc12
inhibition [1]: 1%
inhibition [2]: 43%
inhibition [3]: 32%
inhibition [4]: 3%
inhibition [5]: 2%
inhibition [6]: 5%
inhibition [7]: 4%
IC50 [8]: 700 nM
IC50 [9]: 3890 nM
inhibition [10]: 83%
inhibition [11]: 43%
inhibition [12]: 12%
inhibition [13]: 1%
inhibition [14]: 6%
inhibition [15]: 13%

CCOC(=O)c1nn(-c2ccccc2)cc1C(=O)c1c(C)[nH]c(-c2ccccc2)c1-c1ccccc1
inhibition [1]: 2%
inhibition [2]: 23%
inhibition [3]: 32%
inhibition [4]: 5%
inhibition [5]: 13%
inhibition [6]: 6%
inhibition [7]: 2%
IC50 [8]: 670 nM
IC50 [9]: 3220 nM
inhibition [10]: 85%
inhibition [11]: 23%
inhibition [12]: 21%
inhibition [13]: 2%
inhibition [14]: 7%
inhibition [15]: 12%
